Source: patent publication US20010048926A1, “SYNTHETIC PEPTIDE VACCINES FOR DENTAL CARIES” (priority 1992, published 2001)

Legend:
[1] = test system: inducing peptide construct; assay: ELISA of serum IgG antibody to the inducing (homologous) peptide construct in immunized rats; assay type: in vivo, Sprague Dawley rats; settings: for immunogenicity (percentage of animals responding and titer of responding sera): FIG. 1
Protocol: (§1) Immunogenicity of Peptides: Sprague Dawley CD strain 43 day-old male rats (Charles River Laboratories) were used for injection. Six groups of 4-5 rats were injected subcutaneously in the vicinity of the salivary glands with 50 μg each of GGY, AND, SAND or CAT peptide constructs, 10 μg of GTF, or sham-immunized with buffer alone. The initial injection included complete Freund adjuvant (CFA; Difco); two subsequent injections at 21-day intervals included incomplete Freund adjuvant. Animals were bled prior to injection and 14-21 days after each injection. Serum from coagulated and centrifuged blood was stored frozen at −20° C. until use.
(§2) ELISA: Serum IgG and salivary IgA antibodies were tested by enzyme-linked immunosorbent assay (ELISA). Polystyrene microtiter plates (Flow Laboratories) were coated with […] of each peptide construct or 0.5 μg of S. sobrinus GTF. Antibody activity was then measured by incubation with 1:100 to 1:10^6 dilutions of sera, or 1:4 to 1:32 dilutions of saliva. Plates were then developed for IgG antibody rabbit anti-rat IgG followed in sequence by alkaline phosphatase goat anti-rabbit IgG (Biosource Inc.) and p-nitrophenylphosphate (Sigma). A mouse monoclonal reagent to rat α chain (Zymed, South San Francisco, Calif.) was used with biotinylated goat anti-mouse IgG (TAGO, Inc., Burlingame, Calif.) and avidin-alkaline phosphatase (Cappel) to reveal levels of salivary IgA antibody to peptides. Reactivity was recorded as absorbance (A405 nm) in a micro plate reader (Biotek Instruments). Data are reported as absorbance (A405 nm), reciprocal titer, or as ELISA units (EU) which were calculated relative to the levels of appropriate reference sera or salivas from Sprague Dawley rats thrice immunized with the respective peptide construct. Dilutions of 1:12,800 and 1:6,400 (A405 nm approximately 1.0) were considered 100 EU for serum IgG to the GGY and AND constructs, respectively. Dilutions of 1:32 were considered 100 EU for salivary IgA to both GGY and AND constructs.
(§3) Two experiments were performed. Groups (n=11-12) of 23-26 day-old rats were subcutaneously (sc) injected in the salivary gland vicinity with (experiment 1) GGY (50 μg), AND (50 μg) or GTF(10 μg), or phosphate buffered saline (control animals), or (experiment 2) GGY (50 ;μg) or PBS. Each antigen was incorporated with complete Freund adjuvant in both experiments. Eight (experiment 1) or 14 (experiment 2) days later, rats were reinjected with PBS or with the same antigen and dose in incomplete Freund adjuvant. Six (experiment 1) or 12 (experiment 2) days after the second injection, animals were bled from the tail vein, and saliva was collected after injection of pilocarpine (1.0 mg/100 g body weight). Fourteen (experiment 1) or 11 (experiment 2) days after the second injection, all rats were orally infected with approximately 10^8 S. mutans for 3 consecutive days. Both experiments were terminated 63 days after initial infection.
(§4) Two experiments were performed to measure the effect of immunization with the eight-branched GGY and AND peptide constructs on experimental dental caries in the Sprague-Dawley rat. In the first experiment, groups of rats were immunized with GGY or AND peptide constructs. In the second experiment groups of rats were immunized only with the GGY peptide construct. Pre-infection sera and salivas were collected for antibody measurement in 39 day old rats in experiment 1 (6 days after the second injection) and 51 day old rats in experiment 2 (12 days after the second injection). In the GGY-immunized rat groups, IgG antibody levels to GGY (experiment 1=21.9+17.8 EU; experiment 2=108.0±4.0 EU) were elevated above those of the sham-immunized groups (experiment 1=1.7±0.2 EU; experiment 2=4.0±3.0 EU) in both experiments and reached statistical significance (p<0.002) in experiment 2.

[2] = test system: inducing peptide construct; assay: ELISA of salivary IgA antibody to the inducing (homologous) peptide construct in immunized rats; assay type: in vivo, Sprague Dawley rats; settings: for rats with significant levels of salivary IgA antibody: GGY- and AND-injected rats counted together
Protocol: as §1, §2, §3, §4

CAT peptide construct = target: T1, CAT peptide construct (Streptococcus mutans serotype c, UniProt P08987); assay: Cross-reactivity ELISA, plates coated with CAT peptide construct; assay type: binding; settings: day 63 sera; FIG. 4
T1 construct: residues 442-462 of S. mutans GTF-B; purchased Applied Diagnostics, Foster City, Calif; host or cells: chemical solid phase synthesis
Protocol: as §1
(§5) ELISA: Serum IgG and salivary IgA antibodies were tested by enzyme-linked immunosorbent assay (ELISA). Polystyrene microtiter plates (Flow Laboratories) were coated with […] of each peptide construct or 0.5 μg of S. sobrinus GTF. Antibody activity was then measured by incubation with 1:100 to 1:10^6 dilutions of sera, or 1:4 to 1:32 dilutions of saliva. […] Reactivity was recorded as absorbance (A405 nm) in a micro plate reader (Biotek Instruments). Data are reported as absorbance (A405 nm), reciprocal titer, or as ELISA units (EU) which were calculated relative to the levels of appropriate reference sera or salivas from Sprague Dawley rats thrice immunized with the respective peptide construct. […]

GGY peptide construct = target: T2, GGY peptide construct (Streptococcus mutans serotype c, UniProt P08987); assay: Cross-reactivity ELISA, plates coated with GGY peptide construct; assay type: binding; settings: day 63 sera; FIG. 4
T2 construct: GGY and AND were 19-mer peptides; purchased Applied Diagnostics, Foster City, Calif; host or cells: chemical solid phase synthesis
Protocol: as §1, §5

S. sobrinus GTF [3] = assay: ELISA of serum IgG antibody reacting with intact S. sobrinus GTF; assay type: in vivo; settings: 63 day sera, FIG. 3; for IgG antibody reactivity with intact S. sobrinus GTF: n=4-5 per group
Description: (§6) Glucosyltransferases: Glucosyltransferases (GTF) from S. sobrinus strain 6715 were purified from culture supernatants after bacterial growth in glucose-containing defined media, as described in Taubman et al. (J. Oral Pathol. 17:466-470 (1988)). Enzymes were separated from other culture supernatant proteins by affinity chromatography on Sephadex G-100 (Pharmacia Fine Chemicals), using 6M guanidine HCl as the eluting solvent. GTFs were then obtained from the guanidine HCl eluate by FPLC chromatography on Superose 6 (Pharmacia) using 6M guanidine for elution. GTF preparations contained a mixture of GTF-I, GTF-Sd, and GTF-Si.
as §1, §2

S. mutans SJ32 = assay: Protection experiments: caries assessment (modified Keyes method) after S. mutans infection; assay type: in vivo, Sprague-Dawley rats; settings: both experiments
Description: Experimental Protocol for Protection Experiments: Animals used in the present experiments were derived from germ-free Sprague-Dawley rats that had been reared in the isolator facility of Charles River Laboratories, Wilmington, Mass. (Area 051). […] These rats served as initial breeding stock for dams used in these experiments and were regularly monitored for absence of mutans streptococci. The progeny of the dams used for the present experiments were weaned at approximately 21 days and were subsequently fed high sucrose Diet 2000.
as §3
Caries assessment: The extent and depth of carious lesions in all rat molar teeth (caries score) were microscopically evaluated by a modified Keyes method as previously described (Taubman et al., J. Immunol. 118:710-720 (1977)). Caries scores were determined separately on smooth and on sulcal dental surfaces.

S. sobrinus GTF [4] = assay: Antibody inhibition of glucan synthesis (filter assay, 14C glucose incorporation into water-insoluble glucan); assay type: biochemical, S. sobrinus strain 6715
Description: as §6
Antibody Inhibition of Glucan Synthesis: Selected rat sera were evaluated for their ability to inhibit glucan synthesis catalyzed by S. sobrinus GTF, using a filter assay. Ten μl volumes of sera (1:100 dilutions in 0.02M sodium phosphate buffered saline and 0.02% sodium azide [PBSA], pH 6.5) were preincubated with the respective GTF for 1 hour at 37° C. in a total volume of 0.04 ml PBSA. Then 1.7 mg sucrose, 44 nCi of [^14C-glucose]-sucrose (approximately 100,000 cpm) were added in 0.2 ml PESA in the presence of 37 μg of dextran T10 (Pharmacia). Incubation proceeded for 18 hours at 37° C., after which water-insoluble glucan was collected on Whatman GF/F glass fiber filters, washed with PBSA, and radioactivity determined as described in Smith et al. (Infect. Immunity 62:5470-5476 (1994)).

AND peptide construct = target: T3, AND peptide construct (Streptococcus mutans serotype c, UniProt P08987); assay: Cross-reactivity ELISA, plates coated with AND peptide construct; assay type: binding; settings: day 63 sera; FIG. 4
T3 construct: GGY and AND were 19-mer peptides; purchased Applied Diagnostics, Foster City, Calif; host or cells: chemical solid phase synthesis
T3 sequence (P08987 whole entry, looked up): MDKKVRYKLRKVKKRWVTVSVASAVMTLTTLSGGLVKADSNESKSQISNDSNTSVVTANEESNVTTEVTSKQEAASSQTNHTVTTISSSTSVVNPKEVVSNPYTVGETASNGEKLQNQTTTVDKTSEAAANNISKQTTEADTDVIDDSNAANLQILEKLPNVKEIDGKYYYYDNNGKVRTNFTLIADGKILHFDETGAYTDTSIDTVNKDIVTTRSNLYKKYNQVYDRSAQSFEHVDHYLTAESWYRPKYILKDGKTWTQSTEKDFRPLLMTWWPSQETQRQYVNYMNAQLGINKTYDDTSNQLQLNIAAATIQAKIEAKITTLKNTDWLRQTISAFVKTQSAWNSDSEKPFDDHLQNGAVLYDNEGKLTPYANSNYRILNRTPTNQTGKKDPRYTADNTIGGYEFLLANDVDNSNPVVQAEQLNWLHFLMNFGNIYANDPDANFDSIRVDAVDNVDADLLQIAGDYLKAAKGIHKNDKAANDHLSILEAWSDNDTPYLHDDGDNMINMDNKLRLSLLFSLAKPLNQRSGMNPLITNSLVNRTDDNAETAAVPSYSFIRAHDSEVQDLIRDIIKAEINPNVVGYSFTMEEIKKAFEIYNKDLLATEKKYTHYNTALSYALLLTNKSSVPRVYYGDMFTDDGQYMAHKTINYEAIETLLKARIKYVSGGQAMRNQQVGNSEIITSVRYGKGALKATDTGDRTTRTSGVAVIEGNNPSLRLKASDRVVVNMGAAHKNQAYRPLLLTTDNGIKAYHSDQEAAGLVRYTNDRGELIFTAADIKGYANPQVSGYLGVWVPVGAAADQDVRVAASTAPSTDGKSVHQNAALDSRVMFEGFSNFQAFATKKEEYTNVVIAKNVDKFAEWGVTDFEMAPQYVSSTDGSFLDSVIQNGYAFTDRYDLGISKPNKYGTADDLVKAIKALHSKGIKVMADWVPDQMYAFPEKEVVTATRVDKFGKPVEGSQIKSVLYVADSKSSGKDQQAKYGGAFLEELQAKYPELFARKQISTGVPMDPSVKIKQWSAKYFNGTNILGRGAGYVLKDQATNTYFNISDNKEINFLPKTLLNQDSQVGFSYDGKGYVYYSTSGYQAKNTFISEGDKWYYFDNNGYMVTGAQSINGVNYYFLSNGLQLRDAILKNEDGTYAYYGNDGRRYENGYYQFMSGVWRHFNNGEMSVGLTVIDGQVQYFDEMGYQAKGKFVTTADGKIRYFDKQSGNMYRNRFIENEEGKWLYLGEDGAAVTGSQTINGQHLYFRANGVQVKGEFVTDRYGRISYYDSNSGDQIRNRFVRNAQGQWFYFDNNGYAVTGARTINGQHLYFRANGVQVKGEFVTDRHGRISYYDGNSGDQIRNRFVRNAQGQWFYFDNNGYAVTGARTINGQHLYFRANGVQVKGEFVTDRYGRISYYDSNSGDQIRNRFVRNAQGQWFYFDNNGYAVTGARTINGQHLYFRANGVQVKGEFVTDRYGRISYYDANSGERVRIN
Protocol: as §1, §5

[5] = test system: experimental dental caries; settings: Taubman et al. Infect. Immun. 63:3088-3093 (1995); protocol similar to experiment 1; cited from earlier work
anti-GGY serum = assay: Epitope mapping by ELISA inhibition, anti-GGY serum on GGY-coated plates; assay type: binding, rat; settings: anti-GGY serum preincubated with heptamer or intact peptide; FIG. 8
Protocol: Epitope Mapping: B cell epitopes were mapped on the GGY and AND peptides by an ELISA inhibition technique. Anti-GGY or anti-AND sera were preincubated with 13 separate heptamers representing the incremental peptide sequence of the respective peptide, or with intact peptide, followed by the conventional ELISA with intact peptide-coated plates. B cell epitopes were indicated by a significant reduction in absorbance.

[6] = protection experiment 1, pre-infection

ANDVDNSNPVVQ [SAND]
immunogenicity (percentage of animals responding and titer of responding sera) ([1]; immunogenicity experiment): weakly immunogenic

ANDVDNSNPVVQAEQLNWL
rats with significant levels of salivary IgA antibody ([2]; day 21 (one injection)): 7/9
rats with significant levels of salivary IgA antibody ([2]; day 63 (three injections)): 8/9
salivary IgA antibody levels to the AND construct [2, 6]: not significantly elevated
immunogenicity (percentage of animals responding and titer of responding sera) ([1]; immunogenicity experiment): at least as high as observed for the positive control CAT peptide
effect of subsequent immunization on serum IgG titers ([1]; immunogenicity experiment, day 21 (one injection) vs day 63 (three injections)): increased serum IgG titers in all AND-injected rats
serum IgG antibody to the inciting antigen after the first injection ([1]; immunogenicity experiment, rats 43 days old at start, 50 μg sc in CFA, day 21): induced serum IgG antibody to the inciting antigen after the first injection in all rats
Serum IgG antibody levels to the AND construct [1, 6]: not significantly elevated
levels of serum IgG antibody (in words) ([1]; protection experiment 1, weanling rats, two injections eight days apart, bled 14 days after onset (day 39 of life)): little detectable antibody
reaction of serum IgG antibody with the CAT peptide (CAT peptide construct): low but significant reaction
reaction of antisera with the GGY peptide construct (GGY peptide construct): reaction with antisera induced by AND was observed
IgG antibody reactivity with intact S. sobrinus GTF (S. sobrinus GTF [3]): significant reactivity with GTF
GTF reactivity compared with antibody induced by the other peptides (S. sobrinus GTF [3]): significantly more reactive with GTF
mean and median total, smooth surface, and occlusal caries scores vs sham-injected group (S. mutans SJ32): lower than the respective scores of the sham-injected group
inhibition of formation of water-insoluble glucan from sucrose by S. sobrinus GTF (in words) (S. sobrinus GTF [4]; 63 day sera from injected rats, AND p<0.01, FIG. 5): inhibited GTF activity
level of inhibitory activity compared with other immunogens (S. sobrinus GTF [4]; 63 day sera, AND vs CAT p<0.02): exceeded that observed with sera from rats similarly immunized with CAT

CAT: 21-mer peptide containing Asp 451, residues 442-462 of S. mutans GTF-B; positive control (DANFDSIRVDAVDNVDADLLQ) [reference compound]
reaction of serum IgG antibody with the AND peptide construct (AND peptide construct): significant reaction
protective effect against experimental dental caries [5]: a significant protective effect was shown
IgG antibody reactivity with intact S. sobrinus GTF (S. sobrinus GTF [3]): significant reactivity with GTF

FLLANDV
inhibition of GGY antibody binding to intact peptide-coated plates (anti-GGY serum): significantly inhibited

LLANDVD
inhibition of GGY antibody binding to intact peptide-coated plates (anti-GGY serum): significantly inhibited
